The values below come from patent US7510836B2, “Alpha arteether resistance domain” (priority 2003, dated 2009).

The subject of assay [1] is E.coli strain CA 8000 (Gyr+). The experiment in a line: Phenotype of strain (resistance or sensitivity). The class given is cell-based, Escherichia coli. The settings on record: E.coli CA 8000 (Gyr+). The procedure:
(§1) To ascertain the involvement of gyrA mutation, another E.coli strain NK 5819 which is also GyrA″ and nalidixic acid resistant was tested for arteether sensitivity. As expected, strain NK5819 was also sensitive only to a-isomer of arteether. […] The assays for arteether sensitivity was performed by the standard single disk diffusion method (Bauer et al, 1966). As a next step, we isolated gyrA mutants of E.coli strain CA 8000, which is otherwise Gyr+ and nalidixic acid sensitive. The gyrA mutants of CA8000 were isolated as nalidixic acid resistant colonies (20 ug/ml), after mutagenic treatment with NTG ([…]). The isolated CA8000 gyrA mutants were also sensitive only to a isomer of arteether. […] To define precisely the involvement of gyr genes only in the a-arteether sensitivity, we utilised two recombinant clones (pMK 90 and pMK47 containing functional gyr A and gyrB genes respectively) in trans-complementation assays. For this purpose, we mobilized the plasmid clones into the E.coli gyr mutant strains. The resulting transformants were now nalidixic acid sensitive and a-arteether resistant. This constituted the direct evidence supporting our observation that DNA gyrase enzyme alone is involved in conferring a-arteether sensitivity to E.coli strain. […] DNA gyrase enzyme is essential for the bacterial growth. […]

A further assay relates to malaria. The settings on record: antimalarial; cited from earlier work.
A further assay relates to E. coli CA8000. The experiment in a line: Minimum inhibitory concentration (cross resistance). It is filed as cell-based. The settings on record: Escherichia coli; strain CA8000. An excerpt: (§2) The minimum inhibitory concentrations (MIC) of the quinolone and fluoroquinolone antibiotics were quantified for different strains and compared among each other. The differential response indicate the measure of resistance and sensitivity. Higher MIC indicate more resistance.

Another assay deals with E. coli DH5a. The description is as above. The settings on record: Escherichia coli; strain DH5a. The class given is cell-based.
Excerpt: as §2

In assay [2] the test system is E. coli ET8000. The description is as above. The class given is cell-based. The settings on record: Escherichia coli; strain ET8000.
Excerpt: as §2

Assay [3] has as its system E. coli NK5819. The description is as above. It is filed as cell-based. The settings on record: Escherichia coli; strain NK5819.
Excerpt: as §2

The test system of the next assay is E. coli mutant CA80010. The assay is described as above. The settings on record: Escherichia coli, read-out: minimum inhibitory concentration (MIC). The class given is cell-based.
Excerpt: (§3) In order to develop an arteether resistant mutants from an arteether sensitive strains a reverse strategy was applied. Quinoline/fluoroquinolone (Q/FQs) resistant strains were developed spontaneously i.e. screening overnight log phase culture of the Quinolone/fluoroquinolone sensitive i.e. arteether resistant strain (E coli CA 8000) on the poison agar plate of the Q/FQs. The Q/FQ resistant mutants which appeared on the poison agar plates were first purified through single colony purification and then checked for their arteether sensitivity. These arteether sensitive mutants on the contrary when checked for their Q/Fqs resistance they show different level of Q/FQs resistance.
as §2

Another assay deals with E. coli mutant CA80012. The assay is described as above. It is filed as cell-based. The settings on record: Escherichia coli, read-out: minimum inhibitory concentration (MIC).
Excerpt: as §3, §2

Another assay has as its system E. coli mutant CA8001. The assay is described as above. The class given is cell-based. The settings on record: Escherichia coli; strain CA8001.
Excerpt: as §3, §2

The test system of another assay is E. coli mutant CA8002. The description is as above. It is filed as cell-based. The settings on record: Escherichia coli; strain CA8002.
Excerpt: as §3, §2

The next assay relates to E. coli mutant CA8003. The assay is described as above. It is filed as cell-based. The settings on record: Escherichia coli; strain CA8003.
Excerpt: as §3, §2

Another assay concerns E. coli mutant CA8005. Described as above. It is filed as cell-based. The settings on record: Escherichia coli; strain CA8005.
Excerpt: as §3, §2

For the next assay, the system named is E. coli mutant CA8006. The assay is described as above. The class given is cell-based. The settings on record: Escherichia coli; strain CA8006.
Excerpt: as §3, §2

In a further assay the test system is E. coli mutant CA8007. Described as above. The class given is cell-based. The settings on record: Escherichia coli; strain CA8007.
Excerpt: as §3, §2

The test system of another assay is E. coli mutant CA8009. The assay is described as above. The class given is cell-based. The settings on record: Escherichia coli; strain CA8009.
Excerpt: as §3, §2

A further assay deals with E. coli DH5α. The experiment in a line: Phenotype of strain (resistance or sensitivity). Also noted: key to Phenotype: R: resistance; S: sensitivity. The class given is cell-based, Escherichia coli. The procedure:
As a result of this mutation, the said strain is also resistant to a drug called nalidixic acid.
(§4) To ascertain the involvement of gyrA mutation, another E.coli strain NK 5819 which is also GyrA″ and nalidixic acid resistant was tested for arteether sensitivity. As expected, strain NK5819 was also sensitive only to a-isomer of arteether. […] The assays for arteether sensitivity was performed by the standard single disk diffusion method (Bauer et al, 1966). As a next step, we isolated gyrA mutants of E.coli strain CA 8000, which is otherwise Gyr+ and nalidixic acid sensitive. The gyrA mutants of CA8000 were isolated as nalidixic acid resistant colonies (20 ug/ml), after mutagenic treatment with NTG ([…]). The isolated CA8000 gyrA mutants were also sensitive only to a isomer of arteether. […] To define precisely the involvement of gyr genes only in the a-arteether sensitivity, we utilised two recombinant clones (pMK 90 and pMK47 containing functional gyr A and gyrB genes respectively) in trans-complementation assays. For this purpose, we mobilized the plasmid clones into the E.coli gyr mutant strains. The resulting transformants were now nalidixic acid sensitive and a-arteether resistant. This constituted the direct evidence supporting our observation that DNA gyrase enzyme alone is involved in conferring a-arteether sensitivity to E.coli strain. […] DNA gyrase enzyme is essential for the bacterial growth. This enzyme transiently breaks the DNA strands and introduces negative superhelical turns in an ATP-dependent process. The E.coli DNA gyrase enzyme is a tetramer with two subunits A and B. These two subunits are nalidixic acid and coumermycin sensitive respectively (U.S. Pat. No. 6,127,405 and a co-pending patent).
(§5) The strains of E coli of the investigation, their phenotypes in terms of a-arteether (resistance or sensitivity, superscript R or S) or antibiotic resistance or sensitivity, change in nucleotide position of the gyrase A gene leading to the phenotype, corresponding amino acid change in the protein and the position of amino acid change are being described. Always the phenotype a-arteether resistance is accompanied with quinolone or fluoroquinolone sensitivity and vice versa.

Assay [4] has as its system E. coli ET8000. The experiment in a line: Phenotype of strain (resistance or sensitivity). It is filed as cell-based, Escherichia coli. Also on record: key: R: resistance; S: sensitivity. The settings on record: gyrA GAC-AAC(259), Asp-Asn 87.
Excerpt: as §5

For assay [5], the system named is E. coli NK5819. The experiment in a line: Phenotype of strain (resistance or sensitivity). The class given is cell-based, Escherichia coli. Also on record: key to Phenotype: R: resistance; S: sensitivity. The procedure:
as §4, §5

For the next assay, the system named is E. coli CA8001. The experiment in a line: Phenotype of strain (resistance or sensitivity). Also noted: key: R: resistance; S: sensitivity. The class given is cell-based, Escherichia coli. The settings on record: gyrA GGT-TGT(241), Gly-Cys 81.
Excerpt: as §3, §5

Another assay concerns E. coli CA8002. The experiment in a line: Phenotype of strain (resistance or sensitivity). The settings on record: gyrA GGT-TGT(241), Gly-Cys 81. Also on record: key: R: resistance; S: sensitivity. The class given is cell-based, Escherichia coli.
Excerpt: as §3, §5

The next assay concerns E. coli CA8003. The experiment in a line: Phenotype of strain (resistance or sensitivity). Also noted: key: R: resistance; S: sensitivity. The settings on record: gyrA GAC-GGC(260), Asp-Gly 87. The class given is cell-based, Escherichia coli.
Excerpt: as §3, §5

The next assay relates to E. coli CA8005. The experiment in a line: Phenotype of strain (resistance or sensitivity). The class given is cell-based, Escherichia coli. Also noted: key: R: resistance; S: sensitivity. The settings on record: gyrA GAC-GGC(260), Asp-Gly 87.
Excerpt: as §3, §5

A further assay relates to E. coli CA8006. The experiment in a line: Phenotype of strain (resistance or sensitivity). The class given is cell-based, Escherichia coli. Also noted: key: R: resistance; S: sensitivity. The settings on record: gyrA TCG-TTG(248), Ser-Leu 83.
Excerpt: as §3, §5

The test system of the next assay is E. coli CA8007. The experiment in a line: Phenotype of strain (resistance or sensitivity). The class given is cell-based, Escherichia coli. Also noted: key: R: resistance; S: sensitivity. The settings on record: gyrA TCG-TTG(248), Ser-Leu 83.
Excerpt: as §3, §5

The next assay relates to E. coli CA8009. The experiment in a line: Phenotype of strain (resistance or sensitivity). The class given is cell-based, Escherichia coli. Also on record: key: R: resistance; S: sensitivity. The settings on record: gyrA TCG-TTG(248), Ser-Leu 83.
Excerpt: as §3, §5

In the next assay the test system is E. coli CA8010. The experiment in a line: Phenotype of strain (resistance or sensitivity). The settings on record: gyrA TCG-TTG(248), Ser-Leu 83. The class given is cell-based, Escherichia coli. Also on record: key: R: resistance; S: sensitivity.
Excerpt: as §3, §5

Assay [6] has as its system E. coli mutant strain AR 9 CA8014. The experiment in a line: Phenotype of revertant (resistance or sensitivity). Also on record: key: R: resistance; S: sensitivity. The settings on record: gyrA AAC-GAC(259), Asn-Asp 87. It is filed as cell-based, Escherichia coli.
Excerpt: as §5
The commercially available strain E. coli DH5[…] (Stratagene, USA) is sensitive to […]-arteether but resistant to quinolone/fluoroquinolone due to a mutation at 87th aminoacid position of the gyr A protein (Aspartic acid of wild type is changed to Aspargine) with corresponding change in the codon GAC to AAC. This strain was used to screen […]-arteether resistant mutations. The observation was startling as the […]-arteether resistant mutants are the exact reversion at the 87th position of the aminoacid of gyrase A subunit i.e. Aspargine changed to aspartic acid, with corresponding change in the codon AAC to GAC.

The subject of assay [7] is E.coli gyr mutant strains transformed with pMK 90 and pMK47 (functional gyr A and gyrB genes). The experiment in a line: Trans-complementation assay. The class given is cell-based, Escherichia coli. The settings on record: gyr mutant strains carrying pMK 90 / pMK47. The procedure:
as §1

In brackets after ≈: the same amount, converted by molar mass.

Turning to `CCO[C@H]1O[C@@H]2O[C@@]3(C)CC[C@H]4[C@H](C)CC[C@@H]([C@H]1C)[C@@]24OO3` [arteethers, arteether], the “Sensitivity or resistance of the strain (words)” value in [1] is listed as “resistant”. Moreover, the “Potency relative to artemisinin” value with malaria is on record as 2-3 times.

Regarding `CCn1cc(C(=O)O)c(=O)c2cc(F)c(N3CCNCC3)cc21` [Norfloxacin], the MIC in the assay with E. coli CA8000 is under 0.05 µg/mL; in the assay on E. coli DH5a it was 20 µg/mL (≈ 62.6 µM); against E. coli ET8000 [2] it was 50 µg/mL (≈ 157 µM); against E. coli NK5819 [3], 25 µg/mL (≈ 78.3 µM); in the assay on E. coli mutant CA80010, 15 µg/mL (≈ 47 µM); with E. coli mutant CA80012 it was 15 µg/mL (≈ 47 µM). The MIC in the assay with E. coli mutant CA8001 worked out at 15 µg/mL (≈ 47 µM); against E. coli mutant CA8002, 15 µg/mL (≈ 47 µM); against E. coli mutant CA8003, 15 µg/mL (≈ 47 µM); against E. coli mutant CA8005 it was 10 µg/mL (≈ 31.3 µM); against E. coli mutant CA8006 it was 20 µg/mL (≈ 62.6 µM); against E. coli mutant CA8007, 15 µg/mL (≈ 47 µM). Besides, the MIC against E. coli mutant CA8009 was 15 µg/mL (≈ 47 µM).

Take `CCn1cc(C(=O)O)c(=O)c2ccc(C)nc21` [Nalidixic acid]: the MIC against E. coli CA8000 was determined as 2 µg/mL (≈ 8.61 µM); in the assay with E. coli DH5a, 50 µg/mL (≈ 215 µM); in the assay on E. coli ET8000 [2], 100 µg/mL (≈ 431 µM); with E. coli NK5819 [3], 20 µg/mL (≈ 86.1 µM); in the assay with E. coli mutant CA80010 it was 100 µg/mL (≈ 431 µM); with E. coli mutant CA80012, 100 µg/mL (≈ 431 µM). Moreover, the MIC was determined as 150 µg/mL (≈ 646 µM) against E. coli mutant CA8001; 150 µg/mL (≈ 646 µM) against E. coli mutant CA8002; 150 µg/mL (≈ 646 µM) against E. coli mutant CA8003; 150 µg/mL (≈ 646 µM) with E. coli mutant CA8005; 150 µg/mL (≈ 646 µM) in the assay with E. coli mutant CA8006; 100 µg/mL (≈ 431 µM) with E. coli mutant CA8007. The molecule also yielded an MIC in the assay on E. coli mutant CA8009 of 100 µg/mL (≈ 431 µM). The Phenotype entry in the assay with E. coli DH5α (DH5α, gyrA GAC-AAC(259), Asp-Asn 87) was “R”; in the assay with E. coli ET8000 [4], “R”; in the assay on E. coli NK5819 [5] (NK5819, gyrA GAC-TAC(259), Asp-Gly 87), “R”; with E. coli CA8001, “R”; with E. coli CA8002 it was “R”; in the assay on E. coli CA8003, “R”. Moreover, the Phenotype entry in the assay on E. coli CA8005 is “R”; in the assay on E. coli CA8006, “R”; with E. coli CA8007 it was “R”; with E. coli CA8009 it was “R”; in the assay with E. coli CA8010 it was “R”; in assay [6], “S”. Further, the entries for the “Sensitivity or resistance of the strain (words)” value (with E. coli DH5α (E.coli DH5a (gyrA 96; Asp87Asn)); in the assay with E. coli NK5819 [5] (E.coli NK 5819 (GyrA mutant)); in assay [1]) were “resistant”, “resistant” and “sensitive”, respectively. Further, the “Sensitivity or resistance of transformants” value in assay [7] is given as “sensitive”.
